Laboratory results from article PMC7279002, “Novel 3′-Substituted-1′,2′,4′-Oxadiazole Derivatives of 18βH-Glycyrrhetinic Acid and Their O-Acylated Amidoximes: Synthesis and Evaluation of Antitumor and Anti-Inflammatory Potential In Vitro and In Vivo” (International Journal of Molecular Sciences, 2020).
Entries after “also recorded” stand apart in the source; their conditions may differ.

Key:
[1] = system: caspase-3/7 in HeLa cells; experiment: Executioner caspases-3/7 activity assay (Caspase-Glo 3/7); assay type: cell-based, human; conditions: 48 h
Protocol: The activity of caspase-3/7 in HeLa cells was evaluated using a Caspase-Glo® 3/7 assay kit (Promega, Madison, WI, USA) according to manufacturer’s instructions. […] After incubation, 100 µL of Caspase-Glo® 3/7 Reagent was added to each wells, the plate was carefully shaken on a plate mixer, then incubated for 30 min in darkness at room temperature. The luminescence was measured using a luminometer (CLARIOstar plate reader (BMG Labtech, Ortenberg, Germany)).

[2] = system: activated caspases in HeLa cells; experiment: Metacaspases activity assay (FITC-VAD-FMK); assay type: cell-based, human; conditions: dose-dependent
Protocol: The activity of caspases was determined by using a CaspACE^TM FITC-VAD-FMK (Promega, Madison, WI, USA). Briefly, HeLa cells were cultured in 24-well plates for 24 h under standard conditions and treated by 5f at 7 or 10 µM for 48 h. The cells were collected and incubated with fluorophore-conjugated pancaspase inhibitor FITC-VAD-FMK in darkness for 30 min at room temperature. After incubation, the cells were centrifuged, washed twice with PBS, and analyzed by flow cytometry. For each sample, 10,000 events were acquired.

B16 melanoma = experiment: Metastatic model of murine B16 melanoma in C57Bl/6 mice; assay type: in vivo; conditions: five injections; for decrease of the numbers of surface metastases in the lungs: day 14
Protocol: (§1) To generate a metastatic model of tumor progression, 10^5 B16 melanoma cells suspended in 0.2 mL of saline buffer were inoculated into the lateral tail vein of C57Bl/6 mice. On day 4 after tumor transplantation, mice were divided into three groups (n = 9 per group): (1) mice without treatment (control); (2) mice who received intraperitoneal (i.p.) injections of 10% Tween-80 (vehicle); and (3) mice who received i.p. injections of 5f in 10% Tween-80 at a dose of 50 mg/kg. The treatment was carried out three times a week. The total number of injections was five. Mice were sacrificed on day 14 after B16 melanoma transplantation and the lungs were collected for calculation of surface metastases.
To study the antimetastatic action of 5f, evaluation of surface metastases in lungs of B16 melanoma bearing mice was carried out. Surface metastases in the lungs were counted using a binocular microscope. Inhibition of metastases development was assessed using the metastasis inhibition index (MII), calculated according to the formula: MII=(∑n(N¯control−Nn)×100% /N¯control)/n, where N is the number of surface metastases and n is the number of mice in the analyzed group. The MII of the control group was taken as 0% and the MII reflecting the absence of metastases was taken as 100%.

[3] = Toxicity assessment in B16 melanoma-bearing mice; assay type: in vivo; conditions: five injections, 50 mg/kg i.p.
Protocol: as §1
During the experiment, general status of the animals and body weight were monitored. At the end of the experiment, organs were collected and organ indexes were calculated as (organ weight / body weight) × 100%.

HeLa cells = experiment: Mitochondrial membrane potential (JC-1, flow cytometry); assay type: cell-based, human; conditions: 48 h, JC-1, HeLa
Protocol: HeLa cells were cultured in 24-well plates for 24 h under standard conditions and treated by 5f at 7 or 10 µM for a subsequent 48 h. After the treatment, the cells were collected and resuspended at 10^6 cells/mL in PBS-contained JC-1 (5 µg/mL). After 30 min of incubation under standard conditions, the cells were centrifuged, washed with PBS, and analyzed using the NovoCyte Flow Cytometer (ACEA Biosciences Inc., San Diego, CA, USA). In total, 10,000 events were acquired for each sample.

CC1(C)C2CC[C@]3(C)C(C(=O)C=C4[C@@H]5C[C@@](C)(c6nc(-c7ccccn7)no6)CC[C@]5(C)CC[C@]43C)[C@@]2(C)CC[C@@H]1O (stereo partly drawn) [Compound 5f, 30-nor-3β-hydroxy-11-oxo-20-(3′-(pyridin-2′′-yl)-1′,2′,4′-oxadiazol-5′-yl)-18βH-olean-12-en]
increase of caspase-3/7 activity in comparison with control ([1]; 5 µM): 1.3 times
increase of caspase-3/7 activity in comparison with control ([1]; 7 µM): 1.9 times
metacaspase activation (FITC-VAD-FMK fluorescence) [2]: significantly increased the intensity of FITC fluorescence
mice with kidney metastases (B16 melanoma; 50 mg/kg i.p.): 2/9
mice with liver metastases (B16 melanoma; 50 mg/kg i.p.): 1/9
decrease of the numbers of surface metastases in the lungs (B16 melanoma; 50 mg/kg i.p., compared to untreated control animals): 4.5 times
decrease of the numbers of surface metastases in the lungs (B16 melanoma; 50 mg/kg i.p., compared to vehicle-treated animals): 3.4 times
metastasis inhibition index (MII) (B16 melanoma; 50 mg/kg i.p., relative to untreated control): 77.7 ± 4.7%
suppression of metastasis growth compared to the vehicle-treated control (B16 melanoma; 50 mg/kg): 70%
survival during the experiment [3]: all 5f-treated mice were alive
toxic effects in mice (organ indexes) ([3]; 50 mg/kg): did not cause toxic and unspecific immunomodulatory effects; also recorded: without systemic toxicity
cells with collapsed membrane potential (gate P3) (HeLa cells; 7 µM): 72.5%
cells with collapsed membrane potential (gate P3) (HeLa cells; 10 µM): 85.2%
